Values quoted from earlier work, collected in patent US8679533B2, “Pramipexole once-daily dosage form” (Pharmacia Corporation, priority 2002, dated 2014).

Conditions: dihydrochloride salt, 20-25° C.

For `CCCN[C@H]1CCc2nc(N)sc2C1` [pramipexole, (S)-2-amino-4,5,6,7-tetrahydro-6-(propylamino)-benzothiazole], which solubility in water is on record?
The solubility in water was “about 200 mg/ml”.
